Data: patent US7592160B2, “Processes for producing isomaltose and isomaltitol and use thereof” (Kabushiki Kaisha Hayashibara Seibutsu Kagaku Kenkyujo, priority 2001, dated 2009)

Legend:
Set-up in all cases: key: −: it showed no change; +: it showed a slight reduction of the color spot of the substrate and the formation of other reaction product; ++: it showed a high reduction of the color spot of the substrate and the formation of other reaction product; +++: it showed a substantial disappearance of the substrate spot and the formation of other reaction product
[1] = test system: α-isomaltosylglucosaccharide-forming enzyme; assay: Action on saccharides as substrates (TLC), enzyme of A19 strain; assay type: biochemical, Arthrobacter globiformis A19 strain; conditions: two units/g substrate, substrate 2% (w/v), 30° C., pH 8.4, 24 hours
Text: (§1) To examine the saccharides in the supernatant, they were separated by developing twice on silica gel thin-layer chromatography (abbreviated as “TLC” hereinafter) using, as a developer, a mixture solution of n-butanol, pyridine, and water (=6:4:1 by volume), and, as a thin-layer plate, “[…]™ 60”, an aluminum plate (20×20 cm) for TLC commercialized by Merck & Co., Inc., Rahway, USA. The coloration of the separated total sugars by the sulfuric acid-methanol method and that of the reducing saccharides by the diphenylamine-aniline method detected a non-reducing saccharide positive at an Rf value of about 0.31 on the former detection method but negative on the latter detection method.
(§2) It was tested whether any saccharides can be used as substrates for α-isomaltosylglucosaccharide-forming enzyme. For the purpose, a solution of maltose, maltotriose, maltotetraose, maltopentaose, maltohexaose, maltoheptaose, isomaltose, isomaltotriose, panose, isopanose, α,α-trehalose, kojibiose, nigerose, neotrehalose, cellobiose, gentibiose, maltitol, maltotriitol, lactose, sucrose, erlose, selaginose, maltosyl glucoside, or isomaltosyl glucoside was prepared.
(§3) To each of the above solutions was added two units/g substrate of a purified specimen of α-isomaltosylglucosaccharide-forming enzyme from either Bacillus globisporus C9 strain obtained by the method in Experiment 4-2, Bacillus globisporus C11 strain obtained by the method in Experiment 7-2, Bacillus globisporus N75 strain obtained by the method in Experiment 11-2, or Arthrobacter globiformis A19 strain obtained by the method in Experiment 15-2, and the resulting each solution was adjusted to give a substrate concentration of 2% (w/v) and incubated at 30° C. and pH 6.0 for 24 hours, except for using pH 8.4 for the enzyme from Arthrobacter globiformis A19 strain. The enzyme solutions before and after the enzymatic reactions were respectively analyzed on TLC disclosed in Experiment 1 to confirm whether the enzymes acted on these substrates.

[2] = test system: α-isomaltosylglucosaccharide-forming enzyme; assay: Action on saccharides as substrates (TLC), enzyme of C11 strain; assay type: biochemical, Bacillus globisporus C11 strain; conditions: two units/g substrate, substrate 2% (w/v), 30° C., pH 6.0, 24 hours
Text: as §1, §2, §3

[3] = test system: α-isomaltosylglucosaccharide-forming enzyme; assay: Action on saccharides as substrates (TLC), enzyme of N75 strain; assay type: biochemical, Bacillus globisporus N75 strain; conditions: two units/g substrate, substrate 2% (w/v), 30° C., pH 6.0, 24 hours
Text: as §1, §2, §3

[4] = test system: α-isomaltosylglucosaccharide-forming enzyme; assay: Action on saccharides as substrates (TLC), enzyme of C9 strain; assay type: biochemical, Bacillus globisporus C9 strain; conditions: two units/g substrate, substrate 2% (w/v), 30° C., pH 6.0, 24 hours
Text: as §1, §2, §3

Row | Compound | Enzymatic action, Enzyme of A19 strain [1] | Enzymatic action, Enzyme of C11 strain [2] | Enzymatic action, Enzyme of N75 strain [3] | Enzymatic action, Enzyme of C9 strain [4]
1 | maltotriose | ++ | ++ | ++ | ++
2 | maltohexaose | +++ | +++ | +++ | +++
3 | OC[C@H]1O[C@H](O[C@H]2O[C@H](CO)[C@@H](O)[C@H](O)[C@H]2O[C@H]2O[C@H](CO)[C@@H](O)[C@H](O)[C@H]2O)[C@H](O)[C@@H](O)[C@@H]1O [Selaginose, selaginose] | − | − | − | −
4 | OC[C@H]1O[C@H](O[C@H]2[C@H](O)[C@@H](O)[C@@H](O[C@H]3[C@H](O)[C@@H](O)[C@@H](O[C@H]4[C@H](O)[C@@H](O)C(O)O[C@@H]4CO)O[C@@H]3CO)O[C@@H]2CO)[C@H](O)[C@@H](O)[C@@H]1O (stereo partly shown) [Maltotetraose, maltotetraose] | +++ | +++ | +++ | +++
5 | OC[C@H]1O[C@@](CO)(O[C@H]2O[C@H](CO)[C@@H](O[C@H]3O[C@H](CO)[C@@H](O)[C@H](O)[C@H]3O)[C@H](O)[C@H]2O)[C@@H](O)[C@@H]1O [Erlose, erlose] | + | + | + | +
6 | OC[C@H]1O[C@H](O[C@H]2C(O)O[C@H](CO)[C@@H](O)[C@@H]2O)[C@H](O)[C@@H](O)[C@@H]1O (stereo partly shown) [Kojibiose, kojibiose] | + | + | + | +
7 | maltoheptaose | +++ | +++ | +++ | +++
8 | maltopentaose | +++ | +++ | +++ | +++
9 | OC[C@@H](O)[C@@H](O[C@H]1O[C@H](CO)[C@@H](O[C@H]2O[C@H](CO)[C@@H](O)[C@H](O)[C@H]2O)[C@H](O)[C@H]1O)[C@H](O)[C@@H](O)CO [Maltotriitol, maltotriitol] | + | + | + | +
10 | isomaltosyl glucoside | − | − | − | −
11 | OC[C@H]1O[C@@H](O[C@H]2O[C@H](CO)[C@@H](O)[C@H](O)[C@H]2O)[C@H](O)[C@@H](O)[C@@H]1O [Neotrehalose, neotrehalose] | + | + | + | +
12 | OC[C@H]1O[C@H](O[C@H]2[C@H](O)[C@@H](O)[C@@H](OC[C@H]3OC(O)[C@H](O)[C@@H](O)[C@@H]3O)O[C@@H]2CO)[C@H](O)[C@@H](O)[C@@H]1O (stereo partly shown) [Isopanose, isopanose] | ++ | ++ | ++ | ++
13 | OC[C@H]1O[C@H](O[C@H]2O[C@H](CO)[C@@H](O[C@H]3O[C@H](CO)[C@@H](O)[C@H](O)[C@H]3O)[C@H](O)[C@H]2O)[C@H](O)[C@@H](O)[C@@H]1O [Maltosyl glucoside, maltosyl glucoside] | ++ | ++ | ++ | ++
14 | OC[C@H]1O[C@H](O[C@H]2[C@H](O)[C@@H](O)[C@H](O)O[C@@H]2CO)[C@H](O)[C@@H](O)[C@@H]1O [Maltose, maltose] | + | + | + | +
15 | OC[C@H]1O[C@H](OC[C@H]2O[C@H](O[C@H]3[C@H](O)[C@@H](O)C(O)O[C@@H]3CO)[C@H](O)[C@@H](O)[C@@H]2O)[C@H](O)[C@@H](O)[C@@H]1O (stereo partly shown) [Panose, panose] | − | − | − | −
16 | OC[C@H]1O[C@H](O[C@H]2[C@H](O)[C@@H](CO)OC(O)[C@@H]2O)[C@H](O)[C@@H](O)[C@@H]1O (stereo partly shown) [Nigerose, nigerose] | + | + | + | +
